Legend:
Assay type in all cases: in vivo, human
[1] = system: patients with stable angina; experiment: MARISA exercise testing (modified Bruce protocol), sustained release ranolazine
Protocol: is the first study of sustained release ranolazine (SR) in stable angina. Methods: Patients withdrawn from other anti-anginal drugs with reproducible angina-limited exercise duration and ≧1 mm ST depression were randomized to Ran (500 mg bid, 1000 mg bit and 1500 mg bid) and matching placebo (Pbo) in a double-blind, four-period, Latin square crossover design. Exercise testing with a modified Bruce protocol was performed at both trough (12 hr after dosing) and peak (4 hr after dosing). Results: 49 centers in the USA, Czech Republic, Poland and Canada randomized 191 patients. 168 completed all 4 double-blind treatment periods; 7 more completed 3 of 4 periods.

[2] = system: patients with chronic stable angina pectoris; experiment: Safety, tolerability and hemodynamics, IR regimens (Example 3)
Protocol: After each 1 week period, patients returned to the exercise laboratory in the morning, at least 1 hour after a light breakfast, for an ETT. This was designated the trough ETT; the trough ETTs were performed at the same time of day for each patient. After completing the trough ETT, the patient received the next scheduled blinded medication dose from the blister pack used that week. Another ETT was performed 1 hour after the administered dose. This was designated the peak ETT. Blood samples were obtained at trough (approximately 8 hours after dosing) and at peak (1 hour after dosing). Other standard laboratory tests were monitored regularly throughout the study. Blood pressure (by cuff) and heart rate were monitored before all ETTs, during the ETT, during the last minute of each stage of the test, at onset angina, at the point of maximum exercise, and during recovery (every minute for 4 minutes, then every 5 minutes until values returned to baseline). Heart rates also was monitored continuously and standard 12-lead ECG recordings were done immediately before exercise with the patient standing on the treadmill, at the end of each stage of exercise, at the maximally tolerated exercise load, and at the termination of exercise.

[3] = system: patients with chronic stable angina pectoris; experiment: Exercise treadmill test (ETT), IR ranolazine.2HCl, placebo-controlled crossover (Example 3); conditions: for Time to onset angina (mean) / Exercise Duration (mean) / Time to 1 mm ST depression (mean): all patients
Protocol: In this Example, the safety and anti-ischemic effects of high plasma ranolazine levels in a large group of angina patients was evaluated and the duration of any effects during steady-state dosing with bid and tid regimens was assessed. In this Example, patients with chronic stable angina pectoris who were responsive to conventional antianginal drugs were treated with 3 ranolazine.2HCl dosing regimens: 267 mg tid, 400 mg bid and 400 mg tid IR Formulations of Example 1. Exercise testing parameters and ranolazine free base concentrations were determined at peak and trough plasma levels.
The study involved double-blind, placebo-controlled randomized treatment phase with 4 treatments (placebo, ranolazine.2HCl 400 mg bid, ranolazine.2HCl 267 mg tid, and ranolazine.2HCl 400 mg tid), 4 treatment sequences and 5 double-blind treatment periods in an extended period Latin square design on pre-qualified patients who were responsive to known antianginal therapy and had stable exercise times.
Human patients with chronic stable angina pectoris, of at least 3 months' duration, that had responded to conventional antianginal therapy were considered candidates. In addition, patients had to have electrocardiogrpahic (ECG) evidence of exercise-induced ischemia based upon horizontal or down-sloping ST-segment depression of ≧1 mm that persisted in 3 consecutive beats during an exercise stress test and an ECG pattern that would not interfere with interpretation of ST-segment changes. The latter criterion specifically excluded patients with left ventricular hypertrophy, pre-excitation, conduction abnormalities, or pacemaker rhythm. Other exclusion criteria included unstable angina or myocardial infarction within the preceding 3 months, heart failure defined as New York Heart Association Class HI or IV, significant valvular or congenital heart disease that was uncorrected, need for digoxin or long-acting nitrate therapy, labile diabetes mellitus, or other serious conditions that would confuse follow-up evaluation.
These immediate release ranolazine.2HCl dosing regimens (267 mg tid, 400 mg bid, 400 mg tid) and a placebo were administered during the treatment phase. Patients took one capsule containing either 267 mg or 400 mg of ranolazine dihydrochloride, or placebo at 8:00 a.m., 4:00 p.m., 8:00 p.m. and 12:00 a.m. All capsules were identical in appearance. Patients were randomized to 1 of 4 treatment sequences, with 25% of the patients assigned to each sequence. Each treatment was administered for 1 week, with one treatment repeated during a fifth 1 week period.
To qualify patients receiving their usual antianginal medications underwent a screening exercise treadmill test (ETT-1) using a Sheffield modified Bruce protocol. If the time to onset angina was […], an antianginal drug was withdrawn and treatment with single-blind placebo was initiated. After 1 to 2 weeks, patients returned for another ETT (ETT-2). If the time to onset angina decreased by 1 minute compared with ETT-1, the patient was considered to have completed the first qualifying ETT. If the decrease in time to onset angina was not ≧1 minute, a second antianginal drug could be withdrawn and the above sequence repeated. If necessary, a third antianginal drug could be withdrawn according to this procedure in order for the patient to qualify. Long-acting nitrates were always withdrawn first; beta-blockers; and calcium antagonists could be withdrawn in either order from patients not receiving long-acting nitrates. After the patient achieved the first qualifying ETT (ETT-2), a second qualifying ETT (ETT-3) was performed in which the time to onset angina had to be within i 15% of that observed during ETT-2. In addition, each of the qualifying ETTs had to have ECG signs of ischemia (≧1 mm horizontal or down-sloping ST-segment depression in 3 consecutive beats). Patients meeting these criteria were used in the study. […]

[4] = Peak, ranolazine.2HCl IR 267 mg tid
[5] = Peak, ranolazine.2HCl IR 400 mg bid
[6] = Peak, ranolazine.2HCl IR 400 mg tid
[7] = Trough, ranolazine.2HCl IR 267 mg tid
[8] = Trough, ranolazine.2HCl IR 400 mg bid
[9] = Trough, ranolazine.2HCl IR 400 mg tid

Structure (SMILES): COc1ccccc1OCC(O)CN1CCN(CC(=O)Nc2c(C)cccc2C)CC1 (racemic) [Ranolazine, (±)-N-(2,6-dimethylphenyl)-4-[2-hydroxy-3-(2-methoxyphenoxy)propyl]-1-piperazine-acetamide]
- Time to 1 mm ST Depression ([1]; SR 500 mg bid, peak): 479 s
- Time to Angina ([1]; SR 500 mg bid, peak): 452 s
- Exercise Duration ([1]; SR 500 mg bid, peak (4 hr after dosing)): 532 s
- Time to 1 mm ST Depression ([1]; SR 500 mg bid, trough): 470 s
- Time to Angina ([1]; SR 500 mg bid, trough): 437 s
- Exercise Duration ([1]; SR 500 mg bid, trough (12 hr after dosing)): 533 s
- Time to 1 mm ST Depression ([1]; SR 1000 mg bid, peak): 502 s
- Time to Angina ([1]; SR 1000 mg bid, peak): 474 s
- Exercise Duration ([1]; SR 1000 mg bid, peak (4 hr after dosing)): 555 s
- Time to 1 mm ST Depression ([1]; SR 1000 mg bid, trough): 491 s
- Time to Angina ([1]; SR 1000 mg bid, trough): 457 s
- Exercise Duration ([1]; SR 1000 mg bid, trough (12 hr after dosing)): 545 s
- Time to 1 mm ST Depression ([1]; SR 1500 mg bid, peak): 508 s
- Time to Angina ([1]; SR 1500 mg bid, peak): 487 s
- Exercise Duration ([1]; SR 1500 mg bid, peak (4 hr after dosing)): 561 s
- Time to 1 mm ST Depression ([1]; SR 1500 mg bid, trough): 514 s
- Time to Angina ([1]; SR 1500 mg bid, trough): 472 s
- Exercise Duration ([1]; SR 1500 mg bid, trough (12 hr after dosing)): 559 s
- blood glucose concentrations, lipid values or liver function tests ([2]; IR dosing regimens): no clinically significant changes
- ECG intervals or complex morphology ([2]; IR dosing regimens vs placebo): no drug-related changes
- tolerability ([2]; over the plasma concentrations achieved in the study): well tolerated
- Time to onset angina (mean) ([3]; Peak (1 hour after dose), ranolazine.2HCl IR 267 mg tid): 9.40 min
- Time to onset angina (mean) ([3]; Peak (1 hour after dose), ranolazine.2HCl IR 400 mg bid): 9.33 min
- Time to onset angina (mean) ([3]; Peak (1 hour after dose), ranolazine.2HCl IR 400 mg tid): 9.33 min
- Exercise Duration (mean) [3, 4]: 10.87 min
- Time to 1 mm ST depression (mean) [3, 4]: 9.99 min
- Exercise Duration (mean) [3, 5]: 10.83 min
- Time to 1 mm ST depression (mean) [3, 5]: 9.86 min
- Exercise Duration (mean) [3, 6]: 10.84 min
- Time to 1 mm ST depression (mean) [3, 6]: 9.94 min
- Time to onset angina (mean) ([3]; Trough (approx. 8 hours after dosing), ranolazine.2HCl IR 267 mg tid): 8.78 min
- Time to onset angina (mean) ([3]; Trough (approx. 8 hours after dosing), ranolazine.2HCl IR 400 mg bid): 8.77 min
- Time to onset angina (mean) ([3]; Trough (approx. 8 hours after dosing), ranolazine.2HCl IR 400 mg tid): 8.65 min
- Exercise Duration (mean) [3, 7]: 10.56 min
- Time to 1 mm ST depression (mean) [3, 7]: 9.22 min
- Exercise Duration (mean) [3, 8]: 10.55 min
- Time to 1 mm ST depression (mean) [3, 8]: 9.22 min
- Exercise Duration (mean) [3, 9]: 10.60 min
- Time to 1 mm ST depression (mean) [3, 9]: 9.31 min
- threshold plasma ranolazine free base concentration for anti-ischemic activity detected during ETT ([3]; estimated from peak and trough results): above 550 ng per mL
- prolongation of time to onset of angina, duration of exercise and time to 1-mm ST-segment depression over placebo, on average ([3]; peak plasma concentrations, three dosing regimens): about 0.33 minutes

— patent US20020052377A1, “Method for treating angina” (priority 2000, published 2002)
